Laboratory results from patent US9273101B2, “Functionalized biomaterials for tissue regeneration” (Nanomed3D S.R.L., priority 2011, dated 2016).
“Also recorded” adds a separate entry of the source.

Tests used:
[1] = test system: murine NSC; assay: NSC differentiation on exposure to soluble heptapeptides (immunofluorescence); type: cell-based; conditions: 12 DIV, Cultrex and Laminin coated wells, peptide 0.1 mg/ml in media, vs untreated NSCs, p<0.05
Description: In vitro tests were performed as previously described (8), in order to assess whether the heptapeptides obtained of the present invention influence NSCs differentiation.
Murine cells (at a concentration of 2×10^4 cells/cm^2) were seeded in each well (96 multi-well plate) previously coated with Cultrex-BME® substrate (R&D systems) (1:100 dilution in basal medium, overnight incubation) or with Laminin (Roche) (1:5 dilution in PBS 1×, pH 7.4, overnight incubation).
Initially, cells were cultured with basal medium supplemented with βFGF (10 ng/ml), added to enhance neuronal progeny differentiation. At 3 days in vitro (DIV), βFGF medium was replaced with Leukemia Inhibitory Factor (LIF, Chemicon) (20 ng/ml) and Brain Derived Neurotrophic Factor (BDNF, Peprotech) (20 ng/ml). Fresh medium was added every three days. The chosen peptides were dissolved in all cell culture media (but not in the coatings) at a concentration of 0.1 mg/ml.
Immunofluorescence tests were performed for assaying the phenotypes of the differentiated murine NSC progenies. The following antibodies were used: rabbit polyclonal against GFAP (1:500, DakoCytomation) for astrocytes and mouse monoclonal against βIII-Tubulin (1:500, Covance) for neurons. Secondary Abs were Goat anti Mouse Alexa 488 (1:1000, Molecular Probes), Goat anti Mouse Cy3 (1:1000, Jackson Immunoresearch), Cell nuclei were counterstained with DAPI (Molecular Probes). Quantitative analyses were performed by counting 100-300 cells for each of 9 randomly chosen fields over a total of 3 independent experiments.
Values, reported as means±standard error of the mean (FIG. 1A).

[2] = test system: human NSCs; assay: Immunofluorescence of differentiated NSC progeny on SAP scaffolds, human; type: cell-based; conditions: 1% scaffold, compared to Cultrex positive control
Description: (§1) In vitro tests were performed as previously described (8), in order to assess whether the biomaterials (assembled hydrogels) obtained with the SAPs of the present invention influenced NSCs adhesion, survival and/or differentiation. SAPeptides (30 μl for each well at a concentration of 10 mg/ml) were assembled into 96 multiwells two hours before cell. Cells (at a concentration of 2×10^4 cells/cm^2) were seeded on the top-surface of each assembled scaffold. Initially, cells were cultured with basal medium supplemented with βFGF (10 ng/ml), added to […]. At 3 days in vitro (DIV), βFGF medium was replaced with Leukemia Inhibitory Factor (LIF, Chemicon) (20 ng/ml) and Brain Derived Neurotrophic Factor (BDNF, Peprotech) (20 ng/ml). Fresh medium was added every three days. For both viability and differentiation assays positive and negative controls consisted of Cultrex-BME® substrate (R&D systems) (1:100 dilution in basal medium) and untreated bottom well surfaces respectively. Cell viability was quantified via CellTiter 96® Aqueous Proliferation Assay (Promega) at 7 DIV as recommended in the Promega protocol. After calibrating the linear response between the cell number and absorbance values, proliferated cell populations were quantified (n=5) by using a Vmax microplate reader (Molecular Devices) at 490 nm wavelength. Values, reported as means±standard error of the mean, were blanked to their respective controls consisting of same substrates and cell culture media without cells.
Immunofluorescence tests were performed for assaying the phenotypes of the differentiated human and murine NSC progenies. In the case of KLP and Ac-KLP just murine NSC have been used. Ac-KLP and KLP scaffolds were prepared at different concentrations in order to display three different stiffness values (viz. 100, 500 and 1000 Pa). This was done to assess the influence of scaffold concentration (and consequently its stiffness) over NSC differentiation. All the other peptides were tested at 1% v/w concentration instead. The following antibodies were used: rabbit polyclonal against GFAP (1:500, DakoCytomation) for astrocytes, mouse monoclonal against βIII-Tubulin (1:500, Covance) for neurons, mouse monoclonal against GalC (1:200, Chemicon) and O4 (1:200, Chemicon) for oligodendrocyes. Secondary Abs were Goat anti Mouse Alexa 488 (1:1000, Molecular Probes), Goat anti Mouse Cy3 (1:1000, Jackson Immunoresearch), Goat anti Rabbit Cy3 (1:1000, Jackson Immunoresearch). […] Quantitative analyses were performed by counting 100-300 cells for each of 9 randomly chosen fields over a total of 3 independent experiments. Phase contrast and fluorescence images of the adhering cells were acquired via Zeiss microscopes Axioplan 2 and ApoTome System at one week after seeding.

[3] = test system: murine NSCs; assay: Imaging and cell proliferation assay (CellTiter 96 MTS) on assembled hydrogels, murine NSCs; type: cell-based; conditions: 7 DIV; for cell viability / proliferated cell population (MTS): scaffolds 10 mg/ml, vs control, P<0.005
Description: as §1

[4] = test system: human NSCs; assay: Imaging and cell proliferation assay (CellTiter 96 MTS) on assembled hydrogels, human NSCs; type: cell-based; conditions: 7 DIV; for cell viability / proliferated cell population (MTS): scaffolds 10 mg/ml, vs control, P<0.03
Description: as §1

[5] = test system: murine NSCs; assay: Immunofluorescence of differentiated NSC progeny on SAP scaffolds, murine; type: cell-based; conditions: for number of neurons (βIII-Tubulin) obtained / number of oligodendrocytes (GalC/O4) obtained: 1% scaffold, compared to Cultrex positive control
Description: as §1
Immunofluorescence tests were performed for assaying the phenotypes of the differentiated human and murine NSC progenies. In the case of KLP and Ac-KLP just murine NSC have been used. Ac-KLP and KLP scaffolds were prepared at different concentrations in order to display three different stiffness values (viz. 100, 500 and 1000 Pa). This was done to assess the influence of scaffold concentration (and consequently its stiffness) over NSC differentiation. All the other peptides were tested at 1% v/w concentration instead. The following antibodies were used: rabbit polyclonal against GFAP (1:500, DakoCytomation) for astrocytes, mouse monoclonal against βIII-Tubulin (1:500, Covance) for neurons, mouse monoclonal against GalC (1:200, Chemicon) and O4 (1:200, Chemicon) for oligodendrocyes. Secondary Abs were Goat anti Mouse Alexa 488 (1:1000, Molecular Probes), Goat anti Mouse Cy3 (1:1000, Jackson Immunoresearch), Goat anti Rabbit Cy3 (1:1000, Jackson Immunoresearch). Cell nuclei were counterstained with DAPI (Molecular Probes). Quantitative analyses were performed by counting 100-300 cells for each of 9 randomly chosen fields over a total of 3 independent experiments. Phase contrast and fluorescence images of the adhering cells were acquired via Zeiss microscopes Axioplan 2 and ApoTome System at one week after seeding.

[6] = Rheology of SAPeptide solutions and self-assembled scaffolds; type: physicochemical; conditions: 1% w/v, 2% w/v and 3% w/v
Description: Rheological properties of the self-assembling peptides of the invention were determined using a controlled stress TA Instruments AR-2000ex rheometer (TA Instruments). A cone-and-plate geometry (acrylic cone diameter, 20 mm; angle, 1°; truncation gap 34 μm) was used. Preliminary strain sweeps were performed for each sample to define the linear viscoelastic region, thus ensuring that moduli were independent of strain. Time sweeps, after addition of PBS (1×) were recorded at 25 C (angular frequency ω=1 Hz) and continued till G′ plateaued. Frequency sweeps, both for peptide water solutions and for self-assembled scaffolds, were performed at 25 C with the instrument in oscillatory mode at controlled strain of 1%. Final strain sweeps was performed at 1 Hz oscillatory frequency and at 25 C: onset point of failure was calculated by linear interpolation and subsequent determination of the intersection of the G′ modes within the linear region and at material failure respectively.

Substance	percentage of differentiated neurons (Beta III Tubulin staining) [1]	number of neurons (βIII-Tubulin) obtained [2]	number of oligodendrocytes (GalC/O4) obtained [2]	cell morphology, adhesion and spreading on assembled hydrogels [3]	cell viability / proliferated cell population (MTS) [3]	cell morphology, adhesion and spreading on assembled hydrogels [4]	cell viability / proliferated cell population (MTS) [4]	number of neurons (βIII-Tubulin) obtained [5]	number of oligodendrocytes (GalC/O4) obtained [5]	also measured
NH2-KLPGWSG-CONH2 (H-KLPGWSG-NH2) [#KLP]	significant increase; also recorded: Highest increase	–	–	–	–	–	–	–	–	–
NH2-GETRAPL-CONH2 (H-GETRAPL-NH2) [#GET]	significant increase	–	–	–	–	–	–	–	–	–
NH2-FAQRVPPGGGLDLKLDLKLDLK-CONH2 (H-FAQRVPPGGGLDLKLDLKLDLK-NH2)	–	significantly higher	significantly higher	spread and branched cells	significantly fostered cell viability; also recorded: cell population was bigger; also recorded: significantly favored	spread and branched cells	significantly fostered cell viability; also recorded: cell population was bigger; also recorded: significantly favored	significantly higher	significantly higher	–
Ac-KLPGWSGGGGLDLKLDLKLDLK-CONH2 (Ac-KLPGWSGGGGLDLKLDLKLDLK-NH2)	–	–	–	–	–	–	–	–	–	G′ and G″ values at different concentrations [6]: increased with concentration increments; differentiated neurons (βIIITubulin positive cells) in correspondence of stiffness reductions ([5]; scaffold stiffness 100, 500 and 1000 Pa): significant increments
Ac-FAQRVPPGGGLDLKLDLKLDLK-CONH2 (Ac-FAQRVPPGGGLDLKLDLKLDLK-NH2)	–	significantly higher	significantly higher	spread and branched cells	cell population was bigger	spread and branched cells	cell population was bigger	significantly higher	significantly higher	–
NH2-HAIYPRH-CONH2 (H-HAIYPRH-NH2) [#HAI]	significant increase	–	–	–	–	–	–	–	–	–
